# Results taken from ChEMBL document CHEMBL1201862, “PubChem BioAssay data set” (2004).
# Several values for one entry are separate records, joined by “and”; a condition that tells them apart may be missing. Identical values can stand only once. Activity calls are given as the source filed them.
# Legend:
# [1] = target: Glyceraldehyde-3-phosphate dehydrogenase (Homo sapiens, UniProt P04406)
# [2] = target: T1, Tyrosine-protein phosphatase non-receptor type 7 (Homo sapiens, UniProt P35236); format: functional
# T1 sequence (P35236 whole entry): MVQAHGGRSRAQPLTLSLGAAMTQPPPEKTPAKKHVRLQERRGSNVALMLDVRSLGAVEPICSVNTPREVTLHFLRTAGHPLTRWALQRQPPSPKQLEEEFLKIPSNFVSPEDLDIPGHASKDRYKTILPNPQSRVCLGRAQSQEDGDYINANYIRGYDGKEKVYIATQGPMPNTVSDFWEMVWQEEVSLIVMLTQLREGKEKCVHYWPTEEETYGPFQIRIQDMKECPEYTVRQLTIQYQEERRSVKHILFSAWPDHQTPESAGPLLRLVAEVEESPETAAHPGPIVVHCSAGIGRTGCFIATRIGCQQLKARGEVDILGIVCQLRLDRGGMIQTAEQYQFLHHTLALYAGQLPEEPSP
# [3] = target: T2, Dual specificity protein phosphatase 6 (Rattus norvegicus, UniProt Q64346)
# T2 sequence (Q64346 whole entry): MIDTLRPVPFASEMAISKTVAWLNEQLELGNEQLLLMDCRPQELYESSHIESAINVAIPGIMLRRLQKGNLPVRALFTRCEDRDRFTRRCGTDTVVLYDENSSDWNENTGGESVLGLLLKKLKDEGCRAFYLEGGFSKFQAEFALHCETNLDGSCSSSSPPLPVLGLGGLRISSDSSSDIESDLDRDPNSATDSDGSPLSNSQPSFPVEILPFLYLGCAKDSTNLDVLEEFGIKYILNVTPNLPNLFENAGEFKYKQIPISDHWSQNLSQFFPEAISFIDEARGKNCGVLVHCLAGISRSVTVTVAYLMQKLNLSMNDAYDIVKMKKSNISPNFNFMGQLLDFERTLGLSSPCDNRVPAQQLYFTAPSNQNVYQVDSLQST
# [4] = target: T2, Dual specificity protein phosphatase 6; format: functional
# Protein Rev = Protein Rev (Human immunodeficiency virus type 1 group M subtype B (isolate HXB2)(HIV-1), UniProt P04618); experiment: blockers of HIV Rev/RRE RNA complex – biochemical, fluorescence polarization, HIV-1, dose response (AID 434976); design: species or system Human immunodeficiency virus 1
# [5] = target: Female germline-specific tumor suppressor gld-1 (Caenorhabditis elegans, UniProt Q17339); experiment: blockers of GLD-1/TGE RNA complex formation – biochemical, fluorescence polarization, C. elegans, dose response (AID 2802);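 note: fluorescence polarization of labeled TGE RNA bound by purified gld-1 protein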
# [6] = target: T3, Eukaryotic translation initiation factor 2-alpha kinase 3 (Homo sapiens, UniProt Q9NZJ5); experiment: Dose response cell-based high-throughput screening assay to measure PERK inhibition. [Related pubchem assays: 1416 ]; format: functional
# T3 sequence (Q9NZJ5 whole entry): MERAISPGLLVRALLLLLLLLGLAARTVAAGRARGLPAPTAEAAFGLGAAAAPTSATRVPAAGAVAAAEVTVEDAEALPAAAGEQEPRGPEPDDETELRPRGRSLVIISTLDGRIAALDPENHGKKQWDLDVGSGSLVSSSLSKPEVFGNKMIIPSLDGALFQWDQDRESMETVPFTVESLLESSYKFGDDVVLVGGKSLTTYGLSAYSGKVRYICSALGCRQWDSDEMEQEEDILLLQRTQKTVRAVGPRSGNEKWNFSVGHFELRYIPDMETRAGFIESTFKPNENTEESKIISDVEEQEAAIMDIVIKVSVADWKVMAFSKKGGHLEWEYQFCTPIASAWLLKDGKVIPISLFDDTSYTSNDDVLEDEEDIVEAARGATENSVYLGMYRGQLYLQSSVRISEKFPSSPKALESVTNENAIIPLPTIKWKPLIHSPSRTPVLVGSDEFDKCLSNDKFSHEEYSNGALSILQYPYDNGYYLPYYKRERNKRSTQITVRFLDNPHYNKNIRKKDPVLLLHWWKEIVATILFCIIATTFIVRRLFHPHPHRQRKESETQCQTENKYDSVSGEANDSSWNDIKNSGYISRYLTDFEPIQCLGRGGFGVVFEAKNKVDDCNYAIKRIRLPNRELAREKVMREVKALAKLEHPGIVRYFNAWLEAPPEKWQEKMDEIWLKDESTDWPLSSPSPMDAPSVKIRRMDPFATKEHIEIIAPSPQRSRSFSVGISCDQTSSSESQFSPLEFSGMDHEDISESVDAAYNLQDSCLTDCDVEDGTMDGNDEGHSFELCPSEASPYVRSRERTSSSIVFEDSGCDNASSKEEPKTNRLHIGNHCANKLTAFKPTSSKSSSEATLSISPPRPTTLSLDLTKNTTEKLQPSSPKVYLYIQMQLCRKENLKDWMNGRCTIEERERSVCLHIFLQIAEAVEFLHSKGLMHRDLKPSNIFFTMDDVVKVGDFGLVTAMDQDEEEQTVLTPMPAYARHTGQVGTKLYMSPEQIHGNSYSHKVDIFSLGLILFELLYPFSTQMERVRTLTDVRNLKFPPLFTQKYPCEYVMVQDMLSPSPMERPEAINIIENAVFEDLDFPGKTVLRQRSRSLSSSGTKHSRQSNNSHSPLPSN
# [7] = target: T3, Eukaryotic translation initiation factor 2-alpha kinase 3; experiment: Counterscreen assay for PERK inhibitors: Dose response cell-based high throughput screening assay to measure inhibition of PERK at 6 hours. [Related pubchem assays: 1522, 1416 ]; format: functional
# [8] = target: Acyl-homoserine lactone acylase PvdQ (Pseudomonas aeruginosa (strain LESB58), UniProt Q9I194); experiment: PvdQ acylase enzyme activity blockers – biochemical, fluorescence, plate reader and imaging, cherry-picks, dose response (AID 493231)
# NS3 = NS3 (Hepatitis C virus, UniProt A3EZJ3); experiment: PubChem AID 2173; design: species or system Hepacivirus hominis
# Vero = experiment: viability of Vero cells under compound – cytotoxicity control for flavivirus capping enzyme inhibitors (AID 588742); format: functional; conditions: Chlorocebus sabaeus
# Genome polyprotein = Genome polyprotein (dengue virus type 2, UniProt P29990); experiment: flavivirus cap methylation enzyme inhibition – biochemical, confirmation dose response, primary screen (AID 588689); format: functional
# [9] = CCR5-tropic HIV-1 fusion blockers – cell-based, CCR5-tropic Env, dose response (AID 2279); format: functional
# [10] = Luminescence Cell-Based Dose Confirmation HTS to Identify Inhibitors of Platelet Dense Granule Release. [Related pubchem assays: 1663 (Primary HTS), 1678 (Summary of Project)]; format: functional
# [11] = target: Luciferin 4-monooxygenase (Photinus pyralis, UniProt P08659); experiment: inhibition of purified Photinus pyralis luciferase – biochemical, luminescence, dose response (AID 1891)
# [12] = Luminescence Cell-Based Dose Confirmation HTS to Identify Activators of 5'UTR Stem-Loop Driven Alpha-Synuclein mRNA Translation in H4 Neuroglioblastoma Cells. [Related pubchem assays: 1829 (Project Summary), 1814 (Primary HTS)]; format: functional
# H4 = experiment: Luminescence Cell-Based Dose Response HTS to Identify Activators of 5'UTR Stem-Loop Driven Prion Protein mRNA Translation in H4 Neuroglioblastoma Cells. [Related pubchem assays: 1829 (Project Summary), 1814 (Primary HTS)]; format: functional; conditions: Homo sapiens
# Tumor necrosis factor = Tumor necrosis factor (Homo sapiens, UniProt P01375); experiment: analog potency on TNFa NF-kB signaling – cell-based, revised, SAR follow-up (AID 2337); format: functional
# [13] = target: T4, Nucleotide-binding oligomerization domain-containing protein 1 (Homo sapiens, UniProt Q9Y239); experiment: blockers of NOD1 pathway activity – revised, SAR follow-up (AID 2333); format: functional
# T4 sequence (Q9Y239 whole entry): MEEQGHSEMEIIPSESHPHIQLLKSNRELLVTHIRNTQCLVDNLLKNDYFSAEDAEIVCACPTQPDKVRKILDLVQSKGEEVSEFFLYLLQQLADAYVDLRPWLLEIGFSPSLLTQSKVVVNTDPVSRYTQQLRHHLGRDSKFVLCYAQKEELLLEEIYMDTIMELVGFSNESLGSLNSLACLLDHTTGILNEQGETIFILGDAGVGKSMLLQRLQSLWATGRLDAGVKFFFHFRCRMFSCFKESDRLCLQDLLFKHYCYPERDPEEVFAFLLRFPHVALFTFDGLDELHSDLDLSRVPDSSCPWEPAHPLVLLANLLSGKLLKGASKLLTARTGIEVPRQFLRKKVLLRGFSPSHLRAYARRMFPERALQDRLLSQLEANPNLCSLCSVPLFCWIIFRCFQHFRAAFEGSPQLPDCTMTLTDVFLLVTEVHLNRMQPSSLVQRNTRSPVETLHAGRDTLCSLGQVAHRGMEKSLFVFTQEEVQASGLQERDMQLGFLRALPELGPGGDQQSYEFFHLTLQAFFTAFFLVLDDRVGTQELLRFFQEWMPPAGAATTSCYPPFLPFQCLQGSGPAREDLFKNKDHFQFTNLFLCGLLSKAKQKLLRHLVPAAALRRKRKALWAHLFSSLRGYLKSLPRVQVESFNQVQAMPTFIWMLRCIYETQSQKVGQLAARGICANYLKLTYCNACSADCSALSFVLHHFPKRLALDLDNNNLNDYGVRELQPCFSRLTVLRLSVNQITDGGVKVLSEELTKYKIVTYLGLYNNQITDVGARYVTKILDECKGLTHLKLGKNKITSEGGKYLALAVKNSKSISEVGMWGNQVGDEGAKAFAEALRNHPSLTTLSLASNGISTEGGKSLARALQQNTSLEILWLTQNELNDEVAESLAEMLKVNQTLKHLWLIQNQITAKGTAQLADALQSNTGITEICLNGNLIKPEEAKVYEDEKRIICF
# HEK293 = experiment: cells; conditions: Homo sapiens;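 note: cells exposed to compound for 14 hours overnight before viability readout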
# [14] = target: Nucleotide-binding oligomerization domain-containing protein 2 (Homo sapiens, UniProt Q9HC29); experiment: PubChem AID 2334; format: functional
# X-box-binding protein 1 = X-box-binding protein 1 (Homo sapiens, UniProt P17861); format: functional, Cricetulus griseus;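 note: confirmatory dose-response counter-screen serving a CHOP assay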
structure (smiles),measurement,setting,value
CC(C)CNc1nc(=O)n(-c2ccc(F)cc2)c(=O)[nH]1,IC50,[1],> 100 µM (not active)
same,IC50,[2],> 100 µM (not active)
same,IC50,[3],> 100 µM (inactive)
same,IC50,[4],> 100 µM (inactive)
Cc1cc2ccccn2c1C(=O)C(=O)O,IC50,[1],> 100 µM (not active)
same,IC50,[2],> 100 µM (not active)
same,IC50,[3],> 100 µM (inactive)
same,IC50,[4],> 100 µM (inactive)
Nc1cccc(C(=O)OCC(=O)Nc2cccc3c2C(=O)c2ccccc2C3=O)c1,IC50,Protein Rev,5.22 µM (active)
same,IC50,[5],1.96 µM (active)
CCc1cccc(C)c1NC(=O)Nc1ccc2c(c1)OCO2,EC50,[6],> 55.7 µM (not active)
same,EC50,[7],> 55.7 µM (not active)
CN1CCOCCOCCN(C)C(=O)N2CCOCCOCCN(CCOCC2)C1=O,EC50,[6],> 55.7 µM (not active)
same,EC50,[7],> 55.7 µM (not active)
Cc1ccc2c(c1)C1C3CCC(C3)C1[S+]([O-])N2 (centres undefined),AC50,[8],25.6 µM (active)
CCOC(=O)c1ccc(N2C(=O)C(C)=C(C)C2=O)cc1,AC50,[8],25 µM (active)
Cc1cc(N2C(=O)C(O)=C(C(=O)c3ccc(C)o3)C2c2cccc(Oc3ccccc3)c2)no1 (centres undefined),IC50,NS3,1.95 µM (active)
same,CC50,Vero,> 40 µM (active)
same,IC50,Genome polyprotein,32 µM (active)
CCOC(=O)c1sc(N2C(=O)C(O)=C(C(=O)c3ccc(C)o3)C2c2cccc([N+](=O)[O-])c2)nc1C (centres undefined),IC50,[9],41.1 µM (active)
same,EC50,[10],18.5 µM (active)
same,EC50,[11],> 112 µM (not active)
COc1ccc(C(=O)C2=C(O)C(=O)N(c3ccccn3)C2c2ccc(C(C)C)cc2)cc1 (centres undefined),IC50,NS3,6.24 µM (active)
same,EC50,[12],22.4 µM (active)
same,EC50,H4,17 µM (active)
O=C(Nc1ccc(Br)cc1)c1ccc(CN2CCc3ccccc3C2)cc1,IC50,Tumor necrosis factor,1.5 µM (active) and 10.9 µM (active)
same,IC50,[13],1.03 µM (active) and 399 nM (active)
same,IC50,HEK293,> 20 µM (inactive)
same,IC50,[14],1.62 µM (active)
O=C(Nc1nc2ccccc2n1Cc1ccccc1Cl)c1ccco1,IC50,Tumor necrosis factor,> 20 µM (inactive)
same,IC50,[13],> 20 µM (inactive)
same,IC50,HEK293,> 20 µM (inactive)
same,IC50,[14],> 20 µM (inactive)
Cc1cc(/C=N/Nc2nc(N)ncc2[N+](=O)[O-])c(C)n1-c1cccc(C(F)(F)F)c1,Absolute IC50 (XBP1),X-box-binding protein 1,10 µM
